Tested on: dioxygenases
Test: not given
Conditions: background statement; cited from earlier work

Structure (SMILES) | inhibition of dioxygenases
CC(Cc1ccc(O)c(O)c1)C(C)Cc1ccc(O)c(O)c1 (centres unmarked) [NDGA, nordihydroguayaretic acid] | inhibitor of all dioxygenases

Target: T1, 5-lipoxygenase (5-LO) (Homo sapiens, UniProt P09917)
T1 construct: endogenous in cells; host or cells: human polymorphonuclear leukocytes from donor blood
T1 sequence (P09917 1-674): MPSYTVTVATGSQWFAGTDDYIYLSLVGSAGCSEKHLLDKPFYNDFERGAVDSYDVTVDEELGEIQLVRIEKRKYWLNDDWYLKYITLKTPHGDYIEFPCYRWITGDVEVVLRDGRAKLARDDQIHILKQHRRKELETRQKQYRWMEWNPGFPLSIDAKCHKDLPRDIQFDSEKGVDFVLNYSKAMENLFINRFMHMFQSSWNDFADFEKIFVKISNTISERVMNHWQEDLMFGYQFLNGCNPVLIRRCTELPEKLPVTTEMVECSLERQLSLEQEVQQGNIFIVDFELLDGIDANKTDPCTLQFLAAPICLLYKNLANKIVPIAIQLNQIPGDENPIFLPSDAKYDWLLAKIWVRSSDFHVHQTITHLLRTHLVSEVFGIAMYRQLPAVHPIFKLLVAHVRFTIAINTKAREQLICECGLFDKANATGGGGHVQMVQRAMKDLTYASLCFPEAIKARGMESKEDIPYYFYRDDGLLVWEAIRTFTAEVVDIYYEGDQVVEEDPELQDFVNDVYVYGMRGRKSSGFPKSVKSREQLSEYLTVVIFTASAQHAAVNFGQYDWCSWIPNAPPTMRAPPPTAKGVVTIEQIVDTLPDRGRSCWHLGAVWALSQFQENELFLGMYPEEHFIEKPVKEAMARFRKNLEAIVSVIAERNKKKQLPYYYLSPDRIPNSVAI
Test: 5-LO inhibiting activity in human polymorphonuclear leukocytes ([14C]-arachidonic acid, A23187; HPLC of eicosanoids)
Type: cell-based
Conditions: 25 μM concentration; read-out: 5-LO inhibitory activity, approximate inhibition percentage
Description: In order to show the 5-LO inhibiting activity of the products of the present invention, a specific test based on human polymorphonuclear leukocytes is chosen.
5-LO Inhibiting Activity in Polymorphonuclear Leukocytes
Blood was obtained from donors which had not received medication during the ten days previous to the extraction. The blood was treated with an anticoagulant (ACD-A) and was centrifuged at 200 g during 12 min at room temperature, separating the supernatant. A solution of Dextran T-500 in physiological serum was added to the pellet, in order to obtain a final concentration of 0.6% w/v, and was allowed to sediment during 40 min. The supernatant was centrifuged at 180 g during 10 min at room temperature. The pellet was resuspended in 5 ml of Hank's buffer, pH 7.4. After the addition of 3 ml of Lymphoprep, the suspension was centrifuged at 450 g during 30 min, and the layers of supernatant were discarded. The next step was the lysis of the erythrocytes present by adding 2 ml of a saline solution. The resulting volume was adjusted to 10 ml with Hank's buffer, pH 7.4. The solution was centrifuged during 10 min at 180 g; the supernatant was discarded and the resulting pellet was resuspended in 1-2 ml of Hank's buffer, pH 7.4. The cellular density was determined using a haemocytometer using the procedure of microcollection Unopette to determine the levels of platelet contamination. Cellular density was adjusted to 2×10^7 cells/ml with Hank's buffer, pH 7.4 and CaCl2 was added to a final concentration of 1.5 mM.
Aliquots (0.5 ml) of the polymorphonuclear leukocytes suspensions, obtained as described in part (a), were incubated during 5 min at 37° C. in the absence (control) and in the presence of three different concentrations of each drug. Afterwards an ethanol solution of [^14 C]-arachidonic acid and A23187 ionophore was added to obtain a final concentration of 10 and 5 μM, respectively. After 5 min of incubation the reaction was stopped by addition of 0.5 ml of ice-cold ethanol. Samples were centrifuged during 2 min at 1500 g, and the supernatants were kept at -80° C. until analyzed. Controls were carried out using the polymorphonuclear leukocyte suspensions aliquots in the presence of the solvent (DMSO) only.
The analysis of the products from the transformation of arachidonic acid through the action of the lipoxygenase (these products being the eicosanoids) was carried out using high pressure liquid chromatography (HPLC), in a reverse phase column (Ultrasphere-ODS, Beckman), injecting 500 μl of the supernatants obtained from the incubations. Elution was carried out using an isocratic mix of mathanol:water:triethylamine:trifluoroacetic acid, 75:25:0.05:0.10, with a flux of 1 ml/min. Detection was carried out with a radioactivity detector with a liquid scintillation cell on-line coupled with the column.

Structure (SMILES) | inhibition at 25 µM [%]
CC(C)(C)c1ccc(O)c(I)c1 [Bobel-2, 4-tert-butyl-2-iodophenol] | 80
CC(C)(C)c1cc(I)ccc1O [Bobel-3, 2-tert-butyl-4-iodophenol] | 96
CC(C)c1cc(I)cc(C(C)C)c1O [Bobel-4, 2,6-diisopropyl-4-iodophenol] | 94
CCc1cc(I)cc(I)c1O [Bobel-7, 2-ethyl-4,6-diiodophenol] | 74
CC(C)c1cc(I)cc(I)c1O [Bobel-8, 2-isopropyl-4,6-diiodophenol] | 95
CC(C)(C)c1cc(I)cc(I)c1O [Bobel-9, 2-tert-butyl-4,6-diiodofenol] | 87
Oc1c(Cl)cc(I)cc1I [Bobel-10, 2-chloro-4,6-diiodophenol] | 73
Oc1c(Br)cc(I)cc1I [Bobel-11, 2-bromo-4,6-diiodophenol] | 88
Oc1c(I)cc(I)cc1C(F)(F)F [Bobel-12, 2-trifluoromethyl-4,6-diiodophenol] | 97
CC(C)c1cc(I)c(O)c(I)c1 [Bobel-14, 4-isopropyl-2,6-diiodophenol] | 85
CC(C)(C)c1cc(I)c(O)c(I)c1 [Bobel-15, 4-tert-butyl-2,6-diiodophenol] | 85
Oc1c(I)cc(-c2ccccc2)cc1I [Bobel-16, 4-phenyl-2,6-diiodophenol] | 97
Oc1c(I)cc(Cl)cc1I [Bobel-18, 4-chloro-2,6-diiodophenol] | 80
Oc1c(I)cc(C(F)(F)F)cc1I [Bobel-20, 4-trifluoromethyl-2,6-diiodophenol] | 100
Cc1c(I)cc(I)c(O)c1I [Bobel-25, 3-methyl-2,4-6-triiodophenol] | 97
CCc1c(I)cc(I)c(O)c1I [Bobel-26, 3-ethyl-2,4,6-triiodophenol] | 94
Oc1c(I)cc(I)c(F)c1I [Bobel-29, 3-fluoro-2,4,6-triiodophenol] | 100
Oc1c(I)cc(I)c(Cl)c1I [Bobel-30, 3-chloro-2,4,6-triiodophenol] | 90

Same assay, conditions: LTB4, 6-trans-LTB4, 5-HETE, 20-OH-LTB4; FIGS. 3 and 4

Structure (SMILES) | concentration of biosynthesis products versus concentration of the drug
CC(C(=O)O)c1ccc2oc(-c3ccc(Cl)cc3)nc2c1 (centres unmarked) [benoxaprofen, reference compound] | decreased in approximately linear with the concentration of the drug used
CC(=O)N1CCN(c2ccc(OCC3COC(Cn4ccnc4)(c4ccc(Cl)cc4Cl)O3)cc2)CC1 (centres unmarked) [ketaconozale, ketoconazole, reference compound] | decreased in approximately linear with the concentration of the drug used

Same assay, conditions: human polymorphonuclear leukocytes; AA 10 μM, A23187 5 μM; average of five different peaks; read-out: IC50 (concentration of the drug which inhibits 50% of the AA converted by 5-LO)

Structure (SMILES) | IC50 [µM]
CC(C(=O)O)c1ccc2oc(-c3ccc(Cl)cc3)nc2c1 (centres unmarked) [benoxaprofen, reference compound] | 92
CC(=O)N1CCN(c2ccc(OCC3COC(Cn4ccnc4)(c4ccc(Cl)cc4Cl)O3)cc2)CC1 (centres unmarked) [ketaconozale, ketoconazole, reference compound] | 102

Same assay, conditions: in words

Structure (SMILES) | 5-LO inhibiting activity of products of monoiodination of phenol (control tests)
Oc1ccccc1I [Bobel 2-iodophenol, 2-iodophenol, reference compound] | negligible activity
Oc1cccc(I)c1 [Bobel 3-iodophenol, 3-iodophenol, reference compound] | negligible activity
Oc1ccc(I)cc1 [Bobel 4-iodophenol, 4-iodophenol, reference compound] | negligible activity

Tested on: not given
Test: not given
Conditions: background statement; cited from earlier work

Structure (SMILES) | toxicity
CC(C(=O)O)c1ccc2oc(-c3ccc(Cl)cc3)nc2c1 (centres unmarked) [benoxaprofen, reference compound] | much too toxic
COc1c(OC)c(OC(C)=O)c2cc(Cl)ccc2c1OC(C)=O [lonapalene] | much too toxic

Tested on: 5-LO
Test: not given
Conditions: background statement; cited from earlier work

Structure (SMILES) | 5-LO inhibition
CC(Cc1ccc(O)c(O)c1)C(C)Cc1ccc(O)c(O)c1 (centres unmarked) [NDGA, nordihydroguayaretic acid] | potent 5-LO inhibitor
